Measured values from ChEMBL document CHEMBL1201862, “PubChem BioAssay data set” (2004).
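Test compounds were applied to cells in 96-well plates for 48 hours at 5 doses. GI50 = concentration required for 50% inhibition of growth.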 Activity calls are given as the source filed them. No stated cut-off is given here; in the data, active = GI50 up to about 1.1 µM and inactive = higher.

Legend:
Test in all cases: NCI anticancer screen, dose series, 48 h
[1] = test system: HCC 2998
[2] = test system: NCI-H460
[3] = test system: PC-3
[4] = test system: EKVX
[5] = test system: MDA-MB-231
[6] = test system: K562
[7] = test system: A549
[8] = test system: NCI-H522
[9] = test system: RXF 393
[10] = test system: HOP-62
[11] = test system: OVCAR-4
[12] = test system: UACC-257
[13] = test system: SNB-75
[14] = test system: KM12
[15] = test system: MOLT-4
[16] = test system: LOX IMVI
[17] = test system: SK-MEL-5
[18] = test system: NCI-H226
[19] = test system: NCI-H23
[20] = test system: RPMI-8226

Row | Compound | GI50 [1] | GI50 [2] | GI50 [3] | GI50 [4] | GI50 [5] | GI50 [6] | GI50 [7] | GI50 [8] | GI50 [9] | GI50 [10] | GI50 [11] | GI50 [12] | GI50 [13] | GI50 [14] | GI50 [15] | GI50 [16] | GI50 [17] | GI50 [18] | GI50 [19] | GI50 [20]
1 | C=C1C(=O)[C@]23C[C@H]1C[C@@H](O)[C@H]2[C@]1(COC3=O)[C@@H](OC(C)=O)CC[C@@](C)(COC(C)=O)[C@H]1C=O [LOXOTHYRIN A] | > 50 µM (inactive) | > 50 µM (inactive) | > 50 µM (inactive) | > 50 µM (inactive) | > 50 µM (inactive) | 6.97 µM (inactive) | > 50 µM (inactive) | 7.28 µM (inactive) | 17.2 µM (inactive) | > 50 µM (inactive) | > 50 µM (inactive) | > 50 µM (inactive) | > 50 µM (inactive) | > 50 µM (inactive) | 9.04 µM (inactive) | > 50 µM (inactive) | > 50 µM (inactive) | 9.57 µM (inactive) | > 50 µM (inactive) | –
2 | CN(C)Cc1cc(C(=O)/C=C/c2ccc(Cl)c(Cl)c2)cc(CN(C)C)c1O | 3.4 µM (inactive) | 2.12 µM (inactive) | 1.96 µM (inactive) | 8.36 µM (inactive) | 2.68 µM (inactive) | 1.31 µM (inactive) | 2.39 µM (inactive) | 1.56 µM (inactive) | 2.48 µM (inactive) | 2.24 µM (inactive) | 4.61 µM (inactive) | 2.31 µM (inactive) | 2.07 µM (inactive) | 1.82 µM (inactive) | 3.18 µM (inactive) | 0.716 µM (active) | 1.6 µM (inactive) | 3.77 µM (inactive) | 5.69 µM (inactive) | 1.99 µM (inactive)
3 | O=C1OC(C(O)C(O)C(O)CO)C(O)C1O (configuration not stated) | > 100 µM (inactive) | > 100 µM (inactive) | > 100 µM (inactive) | > 100 µM (inactive) | > 100 µM (inactive) | > 100 µM (inactive) | > 100 µM (inactive) | > 100 µM (inactive) | > 100 µM (inactive) | > 100 µM (inactive) | > 100 µM (inactive) | > 100 µM (inactive) | > 100 µM (inactive) | > 100 µM (inactive) | > 100 µM (inactive) | > 100 µM (inactive) | > 100 µM (inactive) | > 100 µM (inactive) | > 100 µM (inactive) | > 100 µM (inactive)
4 | Cc1ccc(-c2c(C#N)c(-c3ccc(N(C)C)cc3)c(C#N)c(=O)n2NS(=O)(=O)c2ccccc2)cc1 | 18.3 µM (inactive) | 18.1 µM (inactive) | 33.4 µM (inactive) | 96.6 µM (inactive) | > 100 µM (inactive) | 44.9 µM (inactive) | 36.5 µM (inactive) | 42.3 µM (inactive) | 22.7 µM (inactive) | 46.2 µM (inactive) | 19.9 µM (inactive) | > 100 µM (inactive) | 37 µM (inactive) | 31.3 µM (inactive) | 16.4 µM (inactive) | 28 µM (inactive) | 17.3 µM (inactive) | > 100 µM (inactive) | – | 8.67 µM (inactive)
5 | CC1(C)OC2C(CO)OC(n3cnc(N)nc3=O)C2O1 (configuration not stated) | > 100 µM (inactive) | > 100 µM (inactive) | > 100 µM (inactive) | > 100 µM (inactive) | > 100 µM (inactive) | > 100 µM (inactive) | > 100 µM (inactive) | > 100 µM (inactive) | > 100 µM (inactive) | > 100 µM (inactive) | – | > 100 µM (inactive) | – | – | > 100 µM (inactive) | > 100 µM (inactive) | > 100 µM (inactive) | > 100 µM (inactive) | > 100 µM (inactive) | > 100 µM (inactive)
6 | COc1cc2c(cc1OCCCC(=O)Nc1cc(C(=O)Nc3cc(C(=O)NCCCN(C)C)n(C)n3)n(C)n1)N=CC1CCCN1C2=O (configuration not stated) | 17.3 µM (inactive) | 14.4 µM (inactive) | 31.8 µM (inactive) | 34 µM (inactive) | 20 µM (inactive) | 14.6 µM (inactive) | 36.1 µM (inactive) | 7 µM (inactive) | 16.7 µM (inactive) | 20.1 µM (inactive) | 13.3 µM (inactive) | 17.8 µM (inactive) | – | 34.9 µM (inactive) | 4.79 µM (inactive) | 20.7 µM (inactive) | 15 µM (inactive) | 44.4 µM (inactive) | 17.2 µM (inactive) | 18.5 µM (inactive)
7 | Cc1ccc(/N=C2\C(=N/c3ccc(C)cc3)N(c3ccc(C)cc3)C(=S)N2C(=O)c2ccccc2)cc1 | > 100 µM (inactive) | > 100 µM (inactive) | > 100 µM (inactive) | > 100 µM (inactive) | > 100 µM (inactive) | > 100 µM (inactive) | > 100 µM (inactive) | 43.8 µM (inactive) | 46.8 µM (inactive) | > 100 µM (inactive) | – | > 10 µM (inactive) | 17.5 µM (inactive) | > 100 µM (inactive) | > 100 µM (inactive) | – | > 100 µM (inactive) | > 100 µM (inactive) | > 100 µM (inactive) | > 100 µM (inactive)
